According to patent publication US8853246B2 (Dow AgroSciences LLC, priority 2009, dated 2014):
Where two headings read alike, the source gives them in different places.

How the values were obtained:
[1] = tested on: Green Peach Aphid (Myzus Persicae); assay: Insecticidal test for green peach aphid in foliar spray assay (col. MYZUPE); type: in vivo; conditions: Myzus persicae, 72 h, read-out: MYZUPE 200 ppm (Corrected % Control, rating)
How it was run: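 Cabbage seedlings with 2-3 true leaves, infested with 20-50 wingless adult and nymph aphids one day earlier, sprayed to runoff at 200 ppm (acetone/methanol stock diluted in 0.025% Tween 20), four pots per treatment. After 3 days at ~25 °C, 40% RH, live aphids counted; corrected % control versus solvent-sprayed plants.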

[2] = tested on: Sweetpotato Whitefly-Crawler (Bemisia Tabaci); assay: Insecticidal test for sweetpotato whitefly-crawler in foliar spray assay (col. BEMITA); type: in vivo; conditions: Bemisia tabaci, read-out: BEMITA 200 ppm (Corrected % Control, rating)
How it was run: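 Cotton plants (one 3-5 cm true leaf) infested with whitefly eggs (100-300/plant), held 5-6 days at 82° F, 50% RH until crawlers developed. Sprayed to runoff at 200 ppm (acetone stock diluted in 0.025% Tween 20), four plants per treatment. Live nymphs counted after 8-9 days; % control by Abbott's correction versus solvent check.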

Row | SMILES | melting point | pest or weed control at 200 ppm ([1]; Abbott's correction formula) | pest or weed control at 200 ppm ([2]; Abbott's correction formula) | pest or weed control at 200 ppm ([1]; green peach aphid) | pest or weed control at 200 ppm ([2]; sweetpotato whitefly-crawler)
1 | Cc1nc(-c2cncc(F)c2)sc1N(C)C(=O)C1CCCN(C(=O)OC(C)(C)C)C1 (stereo not drawn) [Compound 580] | 51 to 60 °C | < 80% | 80 to 100% |  | 
2 | C=CC[S+]([O-])CC(C)C(=O)Nc1sc(-c2cccnc2)nc1C (stereo not drawn) [Compound 225] | 147 to 149 °C |  |  | 80 to 100% | 80 to 100%
3 | CC(C)(C)OC(=O)N(COCc1ccccc1)c1cnc(-c2cccnc2)s1 [Compound 265] | 98 to 99 °C |  |  | 80 to 100% | < 80%
4 | CSCCC(=O)N(C)c1sc(-c2cnccc2F)nc1Cl [Compound 515] | 74 to 76 °C | < 80% | < 80% |  | 
5 | CSCCC(=O)N(C)c1cnc(-c2cncc(F)c2)s1 [Compound 30, N-[2-(5-fluoro-pyridin-3-yl)-thiazol-5-yl]-N-methyl-3-methylsulfanyl-propionamide] | 111 to 114 °C |  |  | 80 to 100% | < 80%
6 | Cc1nc(-c2cccnc2)sc1NC(=O)C(C)CS(C)(=O)=O (stereo not drawn) [Compound 99] | 175 to 180 °C |  |  | 80 to 100% | 80 to 100%
7 | CN(C(=O)OC(C)(C)C)c1sc(-c2cncc(F)c2)nc1F [Compound 366] | 81 to 84 °C |  |  | 80 to 100% | 80 to 100%
8 | CC(C)C(=O)N(C)c1cnc(-c2ccc(Cl)nc2)s1 [Compound 69] | 155 to 159 °C |  |  | < 80% | 80 to 100%
9 | CCN(C(=O)CC[S+](C)[O-])c1sc(-c2cccnc2)nc1C (stereo not drawn) [Compound 238] | 89 to 92 °C |  |  | 80 to 100% | 80 to 100%
10 | CSC(C)(C)CC(=O)N(C)c1sc(-c2cncc(F)c2)nc1C [Compound 212] | 73 to 80 °C |  |  | 80 to 100% | 80 to 100%
11 | CC(CS(C)(=O)=O)C(=O)N(C)c1sc(-c2cnc(Cl)c(F)c2)nc1Cl (stereo not drawn) [Compound 475] | 55 to 61 °C | < 80% | < 80% |  | 
12 | CSCC(C)C(=O)N(C)c1cnc(-c2cccnc2)s1 (stereo not drawn) [Compound 28] | 98 to 100 °C |  |  | 80 to 100% | 80 to 100%
13 | Cc1nc(-c2cccnc2)sc1NC(=O)OCc1ccccc1 [Compound 201] | 137 to 139 °C |  |  | < 80% | < 80%
14 | CCSCC(=O)Nc1sc(-c2cccnc2)nc1C [Compound 373] | 157 to 158 °C |  |  | 80 to 100% | 80 to 100%
15 | CCSCC(=O)N(C)c1sc(-c2cccnc2)nc1Cl [Compound 370] | 68 to 71 °C |  |  | 80 to 100% | 80 to 100%
16 | CCNC(=S)N(C)c1sc(-c2cccnc2)nc1C [Compound 449] | 137 to 140 °C | 80 to 100% | 80 to 100% |  | 
17 | CSCCC(=O)N(C(=O)OC(C)(C)C)c1sc(-c2cncc(F)c2)nc1C#N [Compound 494] | 105 to 106 °C | < 80% | < 80% |  | 
18 | CC(C[S+](C)[O-])C(=O)N(C)c1cnc(-c2cncc(F)c2)s1 (stereo not drawn) [Compound 81] | 68 to 70 °C |  |  | 80 to 100% | 80 to 100%
19 | CSCC(C)C(=O)Nc1sc(-c2ccc(F)nc2)nc1C (stereo not drawn) [Compound 159] | 143 to 146 °C |  |  | 80 to 100% | 80 to 100%
20 | CSC(C)(C)CC(=O)Nc1sc(-c2cncc(F)c2)nc1C [Compound 217] | 123 to 126 °C |  |  | 80 to 100% | < 80%

Row | SMILES | melting point | pest or weed control at 200 ppm ([1]; Abbott's correction formula) | pest or weed control at 200 ppm ([2]; Abbott's correction formula) | pest or weed control at 200 ppm ([1]; green peach aphid) | pest or weed control at 200 ppm ([2]; sweetpotato whitefly-crawler)
21 | CSC(C)CC(=O)Nc1sc(-c2cccnc2)nc1Cl (stereo not drawn) [Compound 487] | 120 to 125 °C | 80 to 100% | 80 to 100% |  | 
22 | CC(C)(C)OC(=O)Nc1sc(-c2cncc(F)c2)nc1Br [Compound 297] | 164 to 166 °C |  |  | < 80% | < 80%
23 | Cc1nc(-c2cncc(F)c2)sc1NC(=O)C1CCSC1 (stereo not drawn) [Compound 219] | 209 to 213 °C |  |  | 80 to 100% | < 80%
24 | Cc1nc(-c2cncc(F)c2)sc1N(C)C(=O)C1CCCN(C(=S)NC2CC2)C1 (stereo not drawn) [Compound 585] | 190 to 192 °C | 80 to 100% | < 80% |  | 
25 | CSCC(C)(C)C(=O)N(C)c1sc(-c2cccnc2)nc1C [Compound 34] | 83 to 88 °C |  |  | 80 to 100% | 80 to 100%
26 | CS(=O)(=O)CCC(=O)Nc1sc(-c2cncc(F)c2)nc1Cl [Compound 459] | 239 to 240 °C | 80 to 100% | < 80% |  | 
27 | CCN(C(=O)C(C)Cn1nc(C)nc1C)c1sc(-c2cccnc2)nc1Cl (stereo not drawn) [Compound 541] | 102 to 105 °C | 80 to 100% | < 80% |  | 
28 | CN(C(=O)OC(C)(C)C)c1sc(-c2cncc(F)c2)nc1Cl [Compound 476] | 119 to 120 °C | 80 to 100% | < 80% |  | 
29 | CSCC(C)C(=O)Nc1sc(-c2cccnc2)nc1C (stereo not drawn) [Compound 56] | 132 to 136 °C |  |  | 80 to 100% | 80 to 100%
30 | CCCC(C)(C)OC(=O)N(C)c1sc(-c2cccnc2)nc1C [Compound 491] | 65 to 69 °C | 80 to 100% | 80 to 100% |  | 
31 | CSCC(C)C(=O)Nc1sc(-c2cncc(C#N)c2)nc1C (stereo not drawn) [Compound 172] | 127 to 131 °C |  |  | 80 to 100% | 80 to 100%
32 | Cc1nc(-c2cccnc2)sc1NC(=O)OC1CCCCC1 [Compound 375] | 163 to 167 °C |  |  | < 80% | < 80%
33 | CS[C@H]1CC1C(=O)N(C)c1sc(-c2cncc(F)c2)nc1C (stereo partly drawn) [Compound 216] | 88 to 90 °C |  |  | 80 to 100% | 80 to 100%
34 | Cc1nc(-c2cccnc2)sc1N(C)C(=S)NC(C)C [Compound 386] | 163 to 164 °C |  |  | 80 to 100% | 80 to 100%
35 | Cc1nc(-c2cncc(F)c2)sc1NC(=O)CC[S+](C)[O-] (stereo not drawn) [Compound 147] | 181 to 184 °C |  |  | 80 to 100% | < 80%
36 | CCN(C(=O)c1cscn1)c1sc(-c2cccnc2)nc1Cl [Compound 529] | 82 to 86 °C | 80 to 100% | < 80% |  | 
37 | CN(C(=O)CC(F)(F)F)c1cnc(-c2cccnc2)s1 [Compound 25] | 126 to 128 °C |  |  | 80 to 100% | < 80%
38 | CN(C(=O)CCS(C)(=O)=O)c1sc(-c2ccc(F)nc2)nc1Cl [Compound 470] | 42 to 46 °C | 80 to 100% | < 80% |  | 
39 | CC(=O)Nc1sc(-c2cccnc2)nc1C [Compound 186] | 180 to 182 °C |  |  | < 80% | < 80%
40 | Cc1nc(-c2cccnc2)sc1NC(=O)OC(C)C(F)(F)F (stereo not drawn) [Compound 378] | 133 to 137 °C |  |  | 80 to 100% | 80 to 100%
